Source: ChEMBL document CHEMBL3885881, “DrugMatrix”

Organism: Rattus norvegicus
Assay: DrugMatrix - Regimen: Daily Repeat
Type: toxicity, organism-based, Sprague-Dawley
Parameters: regimen Daily Repeat, gender Male, age 6-8 weeks
Settings: in vivo, po, route oral GAVAGE, vehicle 100 % WATER; for ABSOLUTE BASOPHIL / ABSOLUTE EOSINOPHIL / ABSOLUTE LYMPHOCYTE / ABSOLUTE MONOCYTE / ABSOLUTE SEGMENTED NEUTROPHIL / BASOPHIL / EOSINOPHIL / ERYTHROCYTE COUNT / HEMATOCRIT / HEMOGLOBIN / LEUKOCYTE COUNT / LYMPHOCYTE / MEAN CORPUSCULAR HEMOGLOBIN / MEAN CORPUSCULAR HEMOGLOBIN CONCENTRATION / MEAN CORPUSCULAR VOLUME / MONOCYTE / NEUTROPHIL / NUCLEATED RED BLOOD CELLS / PLATELET COUNT: tissue Blood; for ALANINE AMINOTRANSFERASE / ALBUMIN / ALKALINE PHOSPHATASE / ASPARTATE AMINOTRANSFERASE / BLOOD UREA NITROGEN / CARBON DIOXIDE / CHLORIDE / CHOLESTEROL / CREATINE PHOSPHOKINASE / CREATININE / GLUCOSE / LACTATE DEHYDROGENASE / LIPASE / PHOSPHORUS / POTASSIUM / SODIUM / TOTAL BILIRUBIN / TOTAL PROTEIN / URIC ACID: tissue Plasma
[1] = 8 mg/kg, 120 h, dose level Low, time 5 day
[2] = 100 mg/kg, 72 h, dose level High, time 3 day
[3] = 100 mg/kg, 120 h, dose level High, time 5 day

CCN(C(C)=O)c1cccc(-c2ccnc3c(C#N)cnn23)c1 [ZALEPLON]
ABSOLUTE BASOPHIL [1]: 0 CELLS/uL | ABSOLUTE EOSINOPHIL [1]: 56.67 CELLS/uL | ABSOLUTE LYMPHOCYTE [1]: 12514.33 CELLS/uL | ABSOLUTE MONOCYTE [1]: 39.33 CELLS/uL | ABSOLUTE SEGMENTED NEUTROPHIL [1]: 1223 CELLS/uL | BASOPHIL [1]: 0% | EOSINOPHIL [1]: 0.33% | ERYTHROCYTE COUNT [1]: 5.65 x10E6/uL | HEMATOCRIT [1]: 36.27% | HEMOGLOBIN [1]: 14.43 G/DL | LEUKOCYTE COUNT [1]: 13.83 x10E3/uL | LYMPHOCYTE [1]: 90.67% | MEAN CORPUSCULAR HEMOGLOBIN [1]: 25.57 pg | MEAN CORPUSCULAR HEMOGLOBIN CONCENTRATION [1]: 39.8 G/DL | MEAN CORPUSCULAR VOLUME [1]: 64.17 fL | MONOCYTE [1]: 0.33% | NEUTROPHIL [1]: 8.67% | NUCLEATED RED BLOOD CELLS [1]: 0.33 /100WBC | PLATELET COUNT [1]: 1230.33 x10E3/uL | ALANINE AMINOTRANSFERASE [1]: 55.33 u/L | ALBUMIN [1]: 4.17 G/DL | ALKALINE PHOSPHATASE [1]: 388.67 u/L | ASPARTATE AMINOTRANSFERASE [1]: 80.67 u/L | BLOOD UREA NITROGEN [1]: 14.33 mg/dL | CARBON DIOXIDE [1]: 31.67 mmol/L | CHLORIDE [1]: 101.67 MEQ/L | CHOLESTEROL [1]: 66.33 mg/dL | CREATINE PHOSPHOKINASE [1]: 267.33 u/L | CREATININE [1]: 0.15 mg/dL | GLUCOSE [1]: 126.67 mg/dL | LACTATE DEHYDROGENASE [1]: 359 u/L | LIPASE [1]: 11.33 u/L | PHOSPHORUS [1]: 11.67 mg/dL | POTASSIUM [1]: 6.04 MEQ/L | SODIUM [1]: 144.43 MEQ/L | TOTAL BILIRUBIN [1]: 0.17 mg/dL | TOTAL PROTEIN [1]: 6 G/DL | URIC ACID [1]: 1.4 mg/dL | ABSOLUTE BASOPHIL [2]: 0 CELLS/uL | ABSOLUTE EOSINOPHIL [2]: 0 CELLS/uL | ABSOLUTE LYMPHOCYTE [2]: 12984 CELLS/uL | ABSOLUTE MONOCYTE [2]: 96.67 CELLS/uL | ABSOLUTE SEGMENTED NEUTROPHIL [2]: 1352.67 CELLS/uL | BASOPHIL [2]: 0% | EOSINOPHIL [2]: 0% | ERYTHROCYTE COUNT [2]: 5.72 x10E6/uL | HEMATOCRIT [2]: 36.9% | HEMOGLOBIN [2]: 14 G/DL | LEUKOCYTE COUNT [2]: 14.43 x10E3/uL | LYMPHOCYTE [2]: 90% | MEAN CORPUSCULAR HEMOGLOBIN [2]: 24.5 pg | MEAN CORPUSCULAR HEMOGLOBIN CONCENTRATION [2]: 37.97 G/DL | MEAN CORPUSCULAR VOLUME [2]: 64.5 fL | MONOCYTE [2]: 0.67% | NEUTROPHIL [2]: 9.33% | NUCLEATED RED BLOOD CELLS [2]: 0 /100WBC | PLATELET COUNT [2]: 1335.67 x10E3/uL | ALANINE AMINOTRANSFERASE [2]: 82.33 u/L | ALBUMIN [2]: 4.13 G/DL | ALKALINE PHOSPHATASE [2]: 449.67 u/L | ASPARTATE AMINOTRANSFERASE [2]: 80 u/L | BLOOD UREA NITROGEN [2]: 11.67 mg/dL | CARBON DIOXIDE [2]: 33.33 mmol/L | CHLORIDE [2]: 106 MEQ/L | CHOLESTEROL [2]: 71 mg/dL | CREATINE PHOSPHOKINASE [2]: 245.67 u/L | CREATININE [2]: 0.2 mg/dL | GLUCOSE [2]: 139 mg/dL | LACTATE DEHYDROGENASE [2]: 132.33 u/L | LIPASE [2]: 10 u/L | PHOSPHORUS [2]: 11.2 mg/dL | POTASSIUM [2]: 5.9 MEQ/L | SODIUM [2]: 144.73 MEQ/L | TOTAL BILIRUBIN [2]: 0.17 mg/dL | TOTAL PROTEIN [2]: 5.93 G/DL | URIC ACID [2]: 1.4 mg/dL | ABSOLUTE BASOPHIL [3]: 0 CELLS/uL | ABSOLUTE EOSINOPHIL [3]: 0 CELLS/uL | ABSOLUTE LYMPHOCYTE [3]: 12362.67 CELLS/uL | ABSOLUTE MONOCYTE [3]: 101.33 CELLS/uL | ABSOLUTE SEGMENTED NEUTROPHIL [3]: 1236 CELLS/uL | BASOPHIL [3]: 0% | EOSINOPHIL [3]: 0% | ERYTHROCYTE COUNT [3]: 6.29 x10E6/uL | HEMATOCRIT [3]: 38.53% | HEMOGLOBIN [3]: 15 G/DL | LEUKOCYTE COUNT [3]: 13.7 x10E3/uL | LYMPHOCYTE [3]: 89.33% | MEAN CORPUSCULAR HEMOGLOBIN [3]: 23.83 pg | MEAN CORPUSCULAR HEMOGLOBIN CONCENTRATION [3]: 38.93 G/DL | MEAN CORPUSCULAR VOLUME [3]: 61.3 fL | MONOCYTE [3]: 0.67% | NEUTROPHIL [3]: 10% | NUCLEATED RED BLOOD CELLS [3]: 0 /100WBC | PLATELET COUNT [3]: 1219.33 x10E3/uL | ALANINE AMINOTRANSFERASE [3]: 61.67 u/L | ALBUMIN [3]: 4.3 G/DL | ALKALINE PHOSPHATASE [3]: 331.33 u/L | ASPARTATE AMINOTRANSFERASE [3]: 91 u/L | BLOOD UREA NITROGEN [3]: 14.67 mg/dL | CARBON DIOXIDE [3]: 28.67 mmol/L | CHLORIDE [3]: 102 MEQ/L | CHOLESTEROL [3]: 83.33 mg/dL | CREATINE PHOSPHOKINASE [3]: 520 u/L | CREATININE [3]: 0.17 mg/dL | GLUCOSE [3]: 157 mg/dL | LACTATE DEHYDROGENASE [3]: 238.67 u/L | LIPASE [3]: 11 u/L | PHOSPHORUS [3]: 11.7 mg/dL | POTASSIUM [3]: 6.45 MEQ/L | SODIUM [3]: 144.67 MEQ/L | TOTAL BILIRUBIN [3]: 0.2 mg/dL | TOTAL PROTEIN [3]: 6.53 G/DL | URIC ACID [3]: 2.47 mg/dL
